Data as given in publication PMC8765048 (JCI Insight, 2022).

Legend:
Type in all cases: cell-based
[1] = test system: SARS-CoV-2; assay: microbe, parasite or virus in culture
[2] = CellTiter-Glo cell viability assay; conditions: human, Huh-7 cells; Huh-7, 72 h
[3] = CellTiter-Glo cell viability assay; conditions: Primary human hepatocytes
[4] = test system: Salmonella typhimurium; assay: AMES mutagenicity testing (Salmonella typhimurium reverse mutation assay)
Protocol: The standard AMES (Salmonella typhimurium reverse mutation assay, ref. [43]) was performed by Cyprotex to evaluate the mutagenic potentials of sangivamycin. Approximately 10 million bacteria were exposed in triplicate to sangivamycin (6 concentrations, 1 mg/mL high test concentration), a negative control (vehicle), and a positive control for 90 minutes in medium containing a low concentration of histidine (sufficient for about 2 doublings). The cultures were then diluted into indicator medium lacking histidine and dispensed into 48 wells of 384-well plates (microplate format). Plates were incubated for 48 hours at 37°C. In the microsuspension assay, cells that undergo a mutagenic reversion grow, resulting in a color change that is scored as positive wells. Wells with bacterial growth were counted and compared with those with vehicle control. A dose-dependent increase in the number of colonies of at least 2-fold over baseline (mean + SD of the vehicle control) indicated a positive response.

## NC(=O)c1cn([C@@H]2O[C@H](CO)[C@@H](O)[C@H]2O)c2ncnc(N)c12 [Sangivamycin, sangivamycin]
[1]
  SI calculated with the average CellTiter-Glo values: 13
[1]; 2-compartment model for a 70 kg adult, water volumes 42 L
  average in vitro IC50 from all cell types tested, as dose: 0.01 mg/kg
[1]; Severe acute respiratory syndrome coronavirus 2, n = 22, read-out: average IC50 for all viral testing in all cell lines and MOIs
  IC50: 47 ± 5 nM
[1]; average CC50 / average IC50
  SI calculated with the average CellTox Green: > 106
[2]
  CC50 at 72 h: 487 nM
[3]
  CC50 at 72 h: 439 nM
[4]; 1 mg/mL [3.2 mM] high test concentration
  AMES genotoxicity test: >1 mg/mL
[4]; up to 3.2 mM
  bacterial mutagenicity: no evidence of enhanced bacterial mutagenicity
